Test results: article PMC10018782, “Citrus β-carotene hydroxylase 2 (BCH2) participates in xanthophyll synthesis by catalyzing the hydroxylation of β-carotene and compensates for BCH1 in citrus carotenoid metabolism” (Horticulture Research, 2022)

Tests used:
Assay in all cases: functional complementation in beta-carotene-accumulating E. coli, HPLC of carotenoids
Format in all cases: cell-based
Conditions in all cases: E. coli BL21(DE3) with pACCAR16ΔcrtX, 16 °C, 16 h
CsBCH1 = target: T1, CsBCH1 (Citrus sinensis, UniProt Q0QVY5)
T1 construct: gene Chyb; full ORF in pHIS8 (His tag), E. coli BL21(DE3)
T1 sequence (Q0QVY5 1-311): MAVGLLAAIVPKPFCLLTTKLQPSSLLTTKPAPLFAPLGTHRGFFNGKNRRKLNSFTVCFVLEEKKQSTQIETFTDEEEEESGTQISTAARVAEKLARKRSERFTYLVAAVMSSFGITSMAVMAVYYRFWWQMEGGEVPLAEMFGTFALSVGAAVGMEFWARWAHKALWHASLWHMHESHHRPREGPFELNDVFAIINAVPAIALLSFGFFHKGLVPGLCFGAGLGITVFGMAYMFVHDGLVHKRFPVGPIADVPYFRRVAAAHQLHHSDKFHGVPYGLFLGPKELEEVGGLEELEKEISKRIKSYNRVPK

CsBCH2b = target: T2, CsBCH2b (Citrus sinensis, UniProt A0ACB8LPZ5)
T2 construct: gene KPL71_006397; full ORF in pHIS8 (His tag), E. coli BL21(DE3); allele found in pummelo and sweet orange, two non-synonymous sites versus CsBCH2a

CsBCH2a = target: T3, CsBCH2a (Citrus sinensis, UniProt A0ACB8LPZ5)
T3 construct: gene KPL71_006397; full ORF in pHIS8 (His tag), E. coli BL21(DE3); allele identical in mandarin and sweet orange, two non-synonymous sites versus CsBCH2b
T3 sequence (A0ACB8LPZ5 entry or part of it): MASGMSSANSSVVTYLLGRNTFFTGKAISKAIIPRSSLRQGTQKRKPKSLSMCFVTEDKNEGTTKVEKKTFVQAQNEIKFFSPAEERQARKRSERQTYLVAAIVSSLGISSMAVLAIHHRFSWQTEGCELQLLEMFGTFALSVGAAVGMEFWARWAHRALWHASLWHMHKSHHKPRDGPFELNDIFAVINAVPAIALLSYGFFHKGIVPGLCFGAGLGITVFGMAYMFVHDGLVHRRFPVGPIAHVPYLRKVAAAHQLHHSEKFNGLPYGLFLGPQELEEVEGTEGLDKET

T2 sequence (A0ACB8LPZ5 entry or part of it): as above

In the case of CC1=C(/C=C/C(C)=C/C=C/C(C)=C/C=C/C=C(C)/C=C/C=C(C)/C=C/C2=C(C)C[C@@H](O)CC2(C)C)C(C)(C)CCC1 [β-cryptoxanthin], the “functional complementation in beta-carotene-accumulating E. coli, HPLC of carote” value (“functional complementation” for short) (CsBCH1; intermediate formed in the cells, hydroxylated on to zeaxanthin) is reported as “mono-hydroxylated intermediate β-cryptoxanthin and the di-hydroxylated product zeaxanthin”.

In the case of CC1=C(/C=C/C(C)=C/C=C/C(C)=C/C=C/C=C(C)/C=C/C=C(C)/C=C/C2=C(C)CCCC2(C)C)C(C)(C)CCC1 [β-carotene], the “functional complementation” value (CsBCH1) is reported as “CsBCH1 effectively hydroxylated the two β-rings of β-carotene”, the “functional complementation” value (CsBCH2b) is reported as “CsBCH2a and CsBCH2b hydroxylated β-carotene to generate only β-cryptoxanthin in E. coli” and the “functional complementation” value (CsBCH2a) is reported as “CsBCH2a and CsBCH2b hydroxylated β-carotene to generate only β-cryptoxanthin in E. coli”.
